The source of these data is patent publication US20020010154A1, “Compositions comprising cyclodextrin” (priority 2000, published 2002).

Counter-ions that a name gives are not always drawn.

A short description of the first series: Complexation constant with cyclodextrin, spectral displacement method with phenolphthalein. Format: physicochemical. Conditions: no unit in table, complexation constants in M^−1. The text has this:
A spectral displacement method with phenolphthalein is used to determine the complexation constant between cyclodextrin and a given material, especially for surfactants. This method of determining complexation constants with cyclodextrins is described in detail in the following references, which are hereby incorporated herein by reference: Sasaki, K. J., Christian, S. D., and Tucker, E. E., “Study of the Stability of 1:1 Complexes Between Aliphatic Alcohols and b-Cyclodextrins in Aqueous Solution,” Fluid Phase Equilibria, Vol. 49, (Amsterdam, Elsevier Science Publishers, 1989), pp. 281-89. Further information regarding spectral displacement methods can be found in other references, e.g. in Wilson, L. D., Siddall, S. R., and Verrall R. E., “A Spectral Displacement Study of the Binding Constants of Cyclodextrin-Hydrocarbon and—Fluorocarbon Surfactant Inclusion Complexes,” Canadian Journal of Chemistry, Vol. 75, (NRC Canada 1997), pp. 927-933, which is incorporated by reference herein.
The test method is based on the fact that phenolphthalein will complex with cyclodextrin and in complexed form is colorless. However, it has a strong color at pH 10.5 when in non-complexed form. Other, cyclodextrin-incompatible, materials themselves complex with the cyclodextrin and prevent the phenolphthalein from doing so. Thus the higher the complexation constant of the other component with cyclodextrin, the more non-complexed phenolphthalein will be present and the stronger the observed color.
The complexation constant of a given material with cyclodextrin is obtained by an absorbance measurement in the visible region at 550 nm that is performed with a spectrophotometer at room temperature. All solutions are prepared in 4.0×10^−3 mol/l Na2CO3 solution to maintain a constant pH. The concentration of phenolphthalein is kept constant at 3.0×10^−5 mol/l. Cyclodextrin concentration and surfactant concentration are varied. Here, optimum parameter values for absorption coefficient of phenolphthalein at 550 nm is 33,000 M^−1 cm^−1, and the complexation constants of phenolphthalein with cyclodextrin and cyclodextrin derivatives are preliminary obtained. […] Complexation constants of cyclodextrin-compatible and/or cyclodextrin-incompatible materials are determined with using the free, uncomplexed phenolphthalein concentration obtained by absorbance at 550 nm.
Regarding `CCCCCCCCCCCCOS(=O)(=O)[O-].[Na+]` [Sodium dodecyl sulfate], the “Complexation Constant (K)” value is “about 22000”.
Regarding Lauramine oxide, the “Complexation Constant (K)” value is listed as “about 7500”.
The same measure, in the same setting: for Laureth-6 the value was “about 10000”; for `CCCCCCCCCCCC(=O)[O-].[Na+]` [Sodium laurate], “about 16000”.

Another series can be described thus: Complexation constant of phenolphthalein with beta-cyclodextrin (absorbance at 550 nm). Format: physicochemical. The following applies: room temperature, 4.0×10^−3 mol/l Na2CO3, pH 10.5. The text has this: A spectral displacement method with phenolphthalein is used to determine the complexation constant between cyclodextrin and a given material, especially for surfactants. This method of determining complexation constants with cyclodextrins is described in detail in the following references, which are hereby incorporated herein by reference: Sasaki, K. J., Christian, S. D., and Tucker, E. E., “Study of the Stability of 1:1 Complexes Between Aliphatic Alcohols and b-Cyclodextrins in Aqueous Solution,” Fluid Phase Equilibria, Vol. 49, (Amsterdam, Elsevier Science Publishers, 1989), pp. 281-89. Further information regarding spectral displacement methods can be found in other references, e.g. in Wilson, L. D., Siddall, S. R., and Verrall R. E., “A Spectral Displacement Study of the Binding Constants of Cyclodextrin-Hydrocarbon and—Fluorocarbon Surfactant Inclusion Complexes,” Canadian Journal of Chemistry, Vol. 75, (NRC Canada 1997), pp. 927-933, which is incorporated by reference herein. […]
The complexation constant of a given material with cyclodextrin is obtained by an absorbance measurement in the visible region at 550 nm that is performed with a spectrophotometer at room temperature. […] Complexation constants of cyclodextrin-compatible and/or cyclodextrin-incompatible materials are determined with using the free, uncomplexed phenolphthalein concentration obtained by absorbance at 550 nm.
With `O=C1OC(c2ccc(O)cc2)(c2ccc(O)cc2)c2ccccc21` [phenolphthalein], the “complexation constant of phenolphthalein with beta-cyclodextrin” value was “about 21,000 M^−1”.

The nature of another series: CD interaction of perfume components. Details: key: cyclodextrin-compatible perfume materials (i.e. having weak CD interaction); cyclodextrin-incompatible enduring (hydrophobic) perfume materials (i.e. having significant or strong CD interaction); cyclodextrin-incompatible enduring (hydrophobic) perfume materials (i.e. having significant or strong CD interaction). Conditions: perfume component with cyclodextrin. In kind it is physicochemical. The text has this: The following table illustrates the molecular weight property of some of the cyclodextrin-incompatible enduring (hydrophobic) perfume materials (i.e. having significant or strong CD interaction) versus cyclodextrin-compatible perfume materials (i.e. having weak CD interaction).
Take `CCCCCCOC(=O)c1ccccc1O` [Hexyl Salicylate]: the CD interaction entry is “weak”.
With `CC1COCc2cc3c(cc21)C(C)(C)C(C)C3(C)C` (centres unmarked) [Galaxolide], the CD interaction result is “weak”.
On the same count and under the same terms, under `CC(=O)OC(C)(C)C1CC=C(C)CC1` (centres unmarked) [Terpinyl Acetate] stands “significant”; under `CC(=O)C1(C)CC2=C(CCCC2(C)C)CC1C` (centres unmarked) [Iso-E Super], “weak”; under `CC(C=O)Cc1ccc(C(C)C)cc1` (centres unmarked) [Cymal], “strong”.
Same read-out and setting: under `CC(C=O)Cc1ccc(C(C)(C)C)cc1` (centres unmarked) [Lilial, p-t-bucinal] stands “strong”.
Still for that read-out and setting: for `CC(C)(O)CCCC1=CCC(C=O)CC1` (centres unmarked) [Lyral] the value was “weak”; for `CCCCCC1C(=O)CCC1CC(=O)OC` (centres unmarked) [Methyl Dihydro Jasmonate], “weak”; for `CC(=O)OC1CCC(C(C)(C)C)CC1` (centres unmarked) [Vertenex, para-tert-butylcyclohexyl acetate], “strong”.
On to `CC(=O)/C=C/C1C(C)=CCCC1(C)C` (centres unmarked) [a-ionone], for which the CD interaction result is reported as “strong”.
Same read-out and setting: under `CCC(=O)OC1CC2CC1C1CC=CC21` (centres unmarked) [Frutene] stands “strong”; under `CC(=O)C(C)=C(C)C(C)C(C)(C)C` (centres unmarked) [Koavone], “strong”.
On the same count and under the same terms, under `CCOC(=O)c1ccccc1C(=O)OCC` [Diethyl Phthalate] stands “weak”; under `O=C(Cc1ccccc1)OCCc1ccccc1` [Phenyl-Ethyl-Phenyl Acetate], “weak”.
Still for that read-out and setting: for `CCCCCCCCCCCCCC(=O)OC(C)C` [Iso-propyl Myristate] the value was “weak”; for `CC(=O)OC1CC2CC1C1CC=CC21` (centres unmarked) [Flor Acetate], “strong”; for a-Me Ionone, “strong”.
On to `CCC(C)(O)CCCC(C)C` (centres unmarked) [Tetrahydrolinalol], for which the CD interaction entry is reported as “significant”.
Turning to `CCCCCCC(C=O)=Cc1ccccc1` [Hexyl cinnamic Aldehyde], the CD interaction result was “weak”.

Test in another series: not given
Conditions: cited from earlier work.
With `[H]/N=C(\N/C(=N/[H])NCCCCCCNC(=N)NC(=N)Nc1ccc(Cl)cc1)Nc1ccc(Cl)cc1` [diacetate salt, 1,1′-hexamethylene bis(5-(p-chlorophenyl)biguanide)], the solubility in water result is listed as “about 1.8%”.
On to `[H]/N=C(\N/C(=N/[H])NCCCCCCNC(=N)NC(=N)Nc1ccc(Cl)cc1)Nc1ccc(Cl)cc1` [digluconate salt, 1,1′-hexamethylene bis(5-(p-chlorophenyl)biguanide)], for which the solubility in water result is “about 70%”.
